Assay results as given in publication PMC2917377 (Cytometry. Part A : the journal of the International …, 2009).
Blank lines part the entries; values can stand above or below the molecule they belong to. Non-standard residues stand in square brackets, D forms with d. No end group written: not given here. *: point of attachment. Nle = CCCC[C@H](N)C(=O)O; For = O=C*

Experiments:
[1] = target: formyl peptide receptor-like 1; details: cited from earlier work
[2] = target: FPR; details: read-out: Kd for FPR; cited from earlier work
[3] = test system: FPRL1; details: cited from earlier work
[4] = target: T1, WKGMVm; assay: competition flow cytometry
T1 chain: WKGMV[dM]

[5] = target: T2, WKRMVm; assay: competition flow cytometry
T2 chain: WKRMV[dM]

[6] = target: WKYMVm; assay: competition

Molecule: W[Nle]YM [WNleYM]
EC50 [1]: 5.34 nM

Molecule: N-formyl -Met-Leu-Phe-Lys-fluorescein (For-MLFK(fluorescein)) [fMLFK-FITC]
Kd [2]: 3 nM
Binding to FPRL1 [3]: does not bind

IC50 [4]: 176 nM
IC50 [5]: 705 nM
IC50 [6]: 1.8 nM
B1: FPRL1 (protein)
chain: METNFSTPLNEYEEVSYESAGYTVLRILPLVVLGVTFVLGVLGNGLVIWVAGFRMTRTVTTICYLNLALADFSFTATLPFLIVSMAMGEKWPFGWFLCKLIHIVVDINLFGSVFLIGFIALDRCICVLHPVWAQNHRTVSLAMKVIVGPWILALVLTLPVFLFLTTVTIPNGDTYCTFNFASWGGTPEERLKVAITMLTARGIIRFVIGFSLPMSIVAICYGLIAAKIHKKGMIKSSRPLRVLTAVVASFFICWFPFQLVALLGTVWLKEMLFYGKYKIIDILVNPTSSLAFFNSCLNPMLYVFVGQDFRERLIHSLPTSLERALSEDSAPTNDTAANSASPPAETELQAM
